Patent publication US12679839B2, “Cyclin-dependent kinase 7 (CDK7) non-covalent inhibitors” (JANSSEN PHARMACEUTICA NV, priority 2020, dated 2026)

What follows are compounds tested on RNA polymerase II Serine 5 phosphorylation (Rpb1 CTD), downstream substrate of CDK7 (assay: Imaging-based cellular RNA PolII Ser5 phosphorylation assay in A549 cells). Details: Homo sapiens, A549, 3 h, challenged with compound for 3 hours, read-out: pRNA polII Ser5 (A549) pIC50 (converted).
Assay type: cell-based, human
Procedure, shortened: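 A549 cells seeded 20 h in DMEM with 1% FBS, then exposed to compound for 3 h at 37 °C; fixed, methanol-permeabilized and immunostained for phospho-Rpb1 CTD Ser5, read by automated imaging. Signal normalized to DMSO (high) and 10 μM LDC4297 (low) controls; IC50 from four-parameter fit of % control vs concentration.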

Compared with `CC(C)n1cc(Nc2ncc3c(n2)CN(C(=O)[C@H]2CCN(C)C[C@@H]2c2ccccc2)[C@H](C)C3)cn1` [Compound 89], `C[C@@H]1Cc2cnc(NC(C)(C)c3cnn(C)c3)nc2CN1C(=O)[C@H]1CCN(C)C[C@@H]1c1ccccc1` [Compound 90] is 71-fold higher in IC50: 70.8 nM for the first, 5010 nM for the second.

`Cc1cccc([C@H]2CN(C)CC[C@@H]2C(=O)N2Cc3nc(NC4CCOCC4)ncc3C[C@H]2C)c1` [Compound 93] and `Cc1cccc([C@H]2CN(C(C)C)CC[C@@H]2C(=O)N2Cc3nc(NC4CCOCC4)ncc3C[C@H]2C)c1` [Compound 166] are within 1.5-fold of each other in IC50: about 67.6 nM for the first, about 51.3 nM for the second.

`C[C@@H]1Cc2cnc(NC3CCOCC3)nc2CN1C(=O)[C@H]1CCN(C)C[C@@H]1c1ccc(Cl)c(F)c1` [Compound 122b] and `CN1CC[C@H](C(=O)N2Cc3nc(NC4CCOCC4)ncc3[C@@H]3C[C@@H]32)[C@@H](c2ccccc2)C1` [Compound 199] are within 1.5-fold of each other in IC50: about 63.1 nM for the first, about 58.9 nM for the second.

Compared with `CO[C@H]1CC[C@H](Nc2cc3c(cn2)C[C@H](C)N(C(=O)[C@H]2CCN(C)C[C@@H]2c2cccc(C)c2)C3)CC1` [Compound 177c], `CO[C@H]1CC[C@H](Nc2ncc3c(n2)CN(C(=O)[C@H]2CCN(C)C[C@@H]2c2ccccc2)[C@H]2C[C@@H]32)CC1` [Compound 201] is 5-fold lower in IC50: about 97.7 nM for the first, about 19.5 nM for the second.

Compared with `C[C@@H]1c2nc(NC3CCOCC3)ncc2[C@@H](C)CN1C(=O)[C@H]1CCN(C)C[C@@H]1c1ccccc1` [Compound 180a], `CN1CC[C@H](C(=O)N2Cc3nc(NC4CCOCC4)ncc3C(C)(C)C2)[C@@H](c2ccccc2)C1` [Compound 193] is 110-fold higher in IC50: about 32.4 nM for the first, 3630 nM for the second.

Going from `CO[C@H]1CC[C@H](Nc2ncc3c(n2)CN(C(=O)[C@H]2CCN(C)C[C@@H]2c2ccccc2)C2(CC2)C3)CC1` [Compound 192] to `C[C@@H]1Cc2cnc(NC3CCN(S(=O)(=O)C4CC4)CC3)nc2CN1C(=O)N1CCN(C)C[C@@H]1c1ccccc1` [Compound 210], the IC50 falls from 2880 nM to 110 nM (26-fold).

Compared with `CN1CC[C@H](C(=O)N2Cc3nc(Nc4cnn(C)c4)ncc3[C@@H]3C[C@@H]32)[C@@H](c2ccccc2)C1` [Compound 200], `C[C@@H]1Cc2cnc(NCc3ccn(C)n3)nc2CN1C(=O)N1CCN(C)C[C@@H]1c1ccccc1` [Compound 213] is 4.3-fold higher in IC50: 324 nM for the first, 1380 nM for the second.

`C[C@@H]1Cc2cnc(NC3CCOCC3)nc2CN1C(=O)N1CCN(C)C[C@@H]1c1ccccc1` [Compound 204a] and `CC(C)N1CCN(C(=O)N2Cc3nc(NC4CCOCC4)ncc3C[C@H]2C)[C@@H](c2ccccc2)C1` [Compound 206] are within 1.5-fold of each other in IC50: 269 nM for the first, 234 nM for the second.

Compared with `C[C@@H]1Cc2cnc(NC3CCN(S(C)(=O)=O)CC3)nc2CN1C(=O)N1CCN(C)C[C@@H]1c1ccccc1` [Compound 209], `C[C@@H]1Cc2cnc(NC3CCN(S(=O)(=O)N(C)C)CC3)nc2CN1C(=O)N1CCN(C)C[C@@H]1c1ccccc1` [Compound 211] is 3.5-fold higher in IC50: 209 nM for the first, 724 nM for the second.

Compound `C[C@@H]1Cc2cnc(NC3CCS(=O)(=O)CC3)nc2CN1C(=O)N1CCN(C)C[C@@H]1c1ccccc1` [Compound 214] has an IC50 of 3550 nM.

Same assay, conditions: challenged with compound for 3 hours

`CO[C@H]1CC[C@H](Nc2cc3c(cn2)C[C@H](C)N(C(=O)[C@@H]2CCN(C)C[C@H]2c2cccc(C)c2)C3)CC1` [Compound 177a] was tested, and the “pRNA polII Ser5 (A549) pIC50” value was 6.98.
